Measured values from patent publication US7875604B2, “Compounds that inhibit HIV particle formation” (University of Virginia Patent Foundation, priority 2004, dated 2011).
pIC50: −log10 of the molar value. Values joined by “and” are separate entries in the source; they are usually repeats but may differ in a detail not shown here. Equal entries are not always repeated. Where two headings read alike, the source gives them in different places.

Assays:
[1] = test system: HIV-1 NL4-3; test: Anti-HIV efficacy in fresh human PBMCs, reverse transcriptase readout, HIV-1 NL4-3; assay type: cell-based
Description: (§1) Compounds were evaluated for their ability to inhibit HIV replication in fresh human PBMCs. The assay was performed as follows.
(§2) Fresh human PBMCs, seronegative for HIV and HBV, were isolated from screened donors (Interstate Blood Bank, Inc. Memphis, Tenn.). Cells were pelleted/washed 2-3 times by low speed centrifugation and re-suspension in PBS to remove contaminating platelets. The Leukophoresed blood was then diluted 1:1 with Dulbecco's Phosphate Buffered Saline (DPBS) and layered over 14 mL of Lymphocyte Separation Medium (LSM; Cellgro® by Mediatech, Inc.; density 1.078+/−0.002 g/ml; Cat.#85-072-CL) in a 50 mL centrifuge tube and then centrifuged for 30 minutes at 600×g. Banded PBMCs were gently aspirated from the resulting interface and subsequently washed 2× with PBS by low speed centrifugation. After the final wash, cells were enumerated by trypan blue exclusion and re-suspended at 1×10^7 cells/mL in RPMI 1640 supplemented with 15% Fetal Bovine Serum (FBS), and 2 mM L-glutamine, 4 μg/mL Phytohemagglutinin (PHA-P, Sigma). The cells were allowed to incubate for 48-72 hours at 37° C. After incubation, PBMCs were centrifuged and resuspended in RPMI 1640 with 15% FBS, 2 mM L-glutamine, 100 U/mL penicillin, 100 μg/mL streptomycin, 10 μg/mL gentamycin, and 20 U/mL recombinant human IL-2 (R&D Systems, Inc). IL-2 is included in the culture medium to maintain the cell division initiated by the PHA mitogenic stimulation. PBMCs were maintained in this medium at a concentration of 1-2×10^6 cells/mL with biweekly medium changes until used in the assay protocol. Cells were kept in culture for a maximum of two weeks before being deemed too old for use in assays and discarded. Monocytes were depleted from the culture as the result of adherence to the tissue culture flask.
(§3) For the standard PBMC assay, PHA-P stimulated cells from at least two normal donors were pooled (mixed together), diluted in fresh medium to a final concentration of 1×10^6 cells/mL, and plated in the interior wells of a 96 well round bottom microplate at 50 μL/well (5×10^4 cells/well) in a standard format developed by the Infectious Disease Research department of Southern Research Institute. Pooling (mixing) of mononuclear cells from more than one donor is used to minimize the variability observed between individual donors, which results from quantitative and qualitative differences in HIV infection and overall response to the PHA and IL-2 of primary lymphocyte populations. Each plate contains virus/cell control wells (cells plus virus), experimental wells (drug plus cells plus virus) and compound control wells (drug plus media without cells, necessary for MTS monitoring of cytotoxicity). Since HIV-1 is not cytopathic to PBMCs, this allows the use of the same assay plate for both antiviral activity and cytotoxicity measurements. Test drug dilutions were prepared at a 2× concentration in microtiter tubes and 100 μL of each concentration was placed in appropriate wells using the standard format. 50 μL of a predetermined dilution of virus stock was placed in each test well (final MOI≅0.1). The PBMC cultures were maintained for seven days following infection at 37° C., 5% CO2. After this period, cell-free supernatant samples were collected for analysis of reverse transcriptase activity as a measure of virus release. Following removal of supernatant samples, compound cytotoxicity was measured by addition of MTS to the plates for determination of cell viability. Wells were also examined microscopically and any abnormalities were noted.
(§4) A microtiter plate-based reverse transcriptase (RT) reaction was utilized (Buckheit et al., AIDS Research and Human Retroviruses 7:295-302, 1991). Tritiated thymidine triphosphate (3H-TTP, 80 Ci/mmol, NEN) was received in 1:1 dH2O:Ethanol at 1 mCi/mL. […]

[2] = test system: fresh human PBMCs; test: MTS staining for PBMC viability to measure cytotoxicity; assay type: cell-based
Description: as §3
At assay termination, assay plates were stained with the soluble tetrazolium-based dye MTS (CellTiter 96 Reagent, Promega) to determine cell viability and quantify compound toxicity. The mitochondrial enzymes of metabolically active cells metabolize MTS to yield a soluble formazan product. This allows the rapid quantitative analysis of cell viability and compound cytotoxicity. […] At termination of the assay, 20 μL of MTS reagent was added per well. The microtiter plates were then incubated 4-6 hrs at 37° C. The incubation intervals were chosen based on empirically determined times for optimal dye reduction. Adhesive plate sealers were used in place of the lids, the sealed plate was inverted several times to mix the soluble formazan product and the plate was read spectrophotometrically at 490/650 nm with a Molecular Devices Vmax or SpectraMaxPlus plate reader.
(§5) Compounds were tested in the PBMC assay using the maximum high-test concentration possible based on the supplied stocks which are listed in table 3. Compounds were prepared at a 2× high-test concentration by combining drug stock with tissue culture media at a ratio of 5 μL of drug to 995 μL of media. This 2× high-test sample was subsequently serially diluted in tissue culture media using 1/2 log dilutions. This series of 2× concentrated drug was subsequently diluted 1:1 by combining with an equal volume of cells in media in the 96-well plates used for the assay.

[3] = test system: HIV-1 BR/93/021; test: Anti-HIV efficacy in fresh human PBMCs, reverse transcriptase readout, HIV-1 BR/93/021; assay type: cell-based
Description: as §1, §2, §3, §4

[4] = test system: U1 cells; test: MTS staining for cell viability in U1 cell assay; assay type: cell-based; details: analogs, Table 8, MTS, read-out: TC50 (the source's name)
Description: (§6) At the time of the assay, cells were collected by centrifugation and counted by hemacytometer. If cell viability by Trypan Blue dye exclusion was less than 70% the assay was terminated. The cells were adjusted to 5×10^4 cells/mL and 100 μL placed in 96 well plates with 100 μL media containing a final concentration of 5 ng/mL TNF-α and the test compound. Cultures were incubated for 3 days and supernatants harvested. Compound toxicity was determined by MTS dye reduction. Virus expression was measured by supernatant reverse transcriptase activity.
(§7) At assay termination, the assay plates were stained with the soluble tetrazolium-based dye MTS (CellTiter 96 Reagent, Promega) to determine cell viability and quantify compound toxicity as described for the PBMC assay.
as §5, with “U1 latency” for “PBMC”, “3. Compounds were tested using the maximum high-test concentration possible based on the supplied stocks.” for “3.”, “assay. Temacrazine a known inhibitor of HIV transcription was used as a control compound that is active in the post-integration part of the HIV life cycle.” for “assay.”
as §5, with “were tested using the” for “were tested in the PBMC assay using the”, “the supplied stocks. Compounds were” for “the supplied stocks which are listed in table 3. Compounds were”, “2× high-test (HT) sample was” for “2× high-test sample was”

[5] = test system: U1 cells latently infected with HIV-1; test: U1 latency activation assay (TNF-α induced, supernatant reverse transcriptase); assay type: cell-based; details: U1 cell assay
Description: U1 cells were obtained from the AIDS Research and Reference Reagent Program and maintained under standard culture conditions in RPMI 1640 supplemented with 10% fetal bovine serum (heat inactivated), 2 mM L-glutamine, 100 U/mL penicillin and 100 μg/mL streptomycin. U1 cells are derived from the histocytic leukemia cell line U937, and contain an integrated copy of a cytokine and/or phorbol inducible provirus (HIV-1IIIB). Cultures were maintained in such a way as to ensure exponential growth of the populations. Addition of TNF-α to the cell culture induces HIV-1, so that inhibition of virus production indicates an inhibition of a post-integration function of the HIV-1 life cycle. This is where an inhibitor of Rev function would be expected to act. […]
as §6
Reverse transcriptase was assayed to measure virus particle release as described above for the PBMC assay.
as §5, with “U1 latency” for “PBMC”, “3. Compounds were tested using the maximum high-test concentration possible based on the supplied stocks.” for “3.”, “assay. Temacrazine a known inhibitor of HIV transcription was used as a control compound that is active in the post-integration part of the HIV life cycle.” for “assay.”
as §5, with “were tested using the” for “were tested in the PBMC assay using the”, “the supplied stocks. Compounds were” for “the supplied stocks which are listed in table 3. Compounds were”, “2× high-test (HT) sample was” for “2× high-test sample was”

[6] = biological target: T1, HIV-1 Rev (Human immunodeficiency virus type 1 group M subtype B, UniProt P04618); test: cell-based
T1 construct: expressed in transfected cells
Description: The eight compounds listed in Table 1 were also tested in an assay that measured HIV-1 Rev function. […] The reporter used for these assays is the Renilla Luciferase protein, which is an enzyme that produces detectable light when mixed with certain chemicals. For this assay, a cell line has been developed in which the production of the reporter by the cells requires the function of HIV-1 Rev. Therefore, if a drug candidate inhibits the function of Rev, it decreases the amount of the reporter produced by the cells. By using Renilla Luciferase as the reporter, the inhibition of Rev is easily detected as a decrease in the amount of light produced by the cells when mixed with the appropriate chemicals.
as §5, with “Rev” for “PBMC”, “as shown” for “which are listed”, “Table” for “table”

[7] = test system: HeLa; test: HIV-1 Rev assay toxicity/non-specificity readout (Firefly Luciferase); assay type: cell-based; details: 50% inhibition of Firefly Luciferase (toxicity/non-specificity), 24 hours; read-out: TC50 (the source's name)
Description: The eight compounds listed in Table 1 were also tested in an assay that measured HIV-1 Rev function. The HIV-1 Rev assay is based upon the use of a reporter for detecting whether drug candidates are capable of inhibiting the function of the viral Rev protein. The reporter used for these assays is the Renilla Luciferase protein, which is an enzyme that produces detectable light when mixed with certain chemicals. For this assay, a cell line has been developed in which the production of the reporter by the cells requires the function of HIV-1 Rev. Therefore, if a drug candidate inhibits the function of Rev, it decreases the amount of the reporter produced by the cells. By using Renilla Luciferase as the reporter, the inhibition of Rev is easily detected as a decrease in the amount of light produced by the cells when mixed with the appropriate chemicals. Furthermore, the cell line for this assay has been engineered to use a second similar reporter (Firefly Luciferase) that detects whether drug candidates are toxic.
as §5, with “Rev” for “PBMC”, “as shown” for “which are listed”, “Table” for “table”, “assay. Representative data for two of the compounds is also depicted in FIG. 5.” for “assay.”
Leptomycin B is a control compound known to inhibit Rev function.

[8] = MTS staining for cell viability in U1 cell assay; assay type: cell-based; details: human, U1 cells stimulated with TNF-α, read-out: TC50
Description: as §6, §7
as §5, with “U1 latency” for “PBMC”, “3. Compounds were tested using the maximum high-test concentration possible based on the supplied stocks.” for “3.”, “assay. Temacrazine a known inhibitor of HIV transcription was used as a control compound that is active in the post-integration part of the HIV life cycle.” for “assay.”
as §5, with “were tested using the” for “were tested in the PBMC assay using the”, “the supplied stocks. Compounds were” for “the supplied stocks which are listed in table 3. Compounds were”, “2× high-test (HT) sample was” for “2× high-test sample was”

T1 sequence (P04618 whole entry, looked up): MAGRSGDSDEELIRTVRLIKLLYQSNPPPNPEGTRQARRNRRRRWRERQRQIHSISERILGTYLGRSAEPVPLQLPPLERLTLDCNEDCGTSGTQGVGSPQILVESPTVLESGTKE

SMILES: Cc1cn([C@H]2C[C@H](N=[N+]=[N-])[C@@H](CO)O2)c(=O)[nH]c1=O [AZT, reference compound]
- TI (TC50/IC50) ([1]; HIV-1 NL4-3, PBMCs): >1612.90
- pIC50 ([1]; HIV-1 NL4-3, fresh human PBMCs, seven days, RT activity): 9.21
- CC50 [2]: > 1 µM
- TI (TC50/IC50) ([3]; HIV-1 BR/93/021, PBMCs): >404.86
- pIC50 ([3]; HIV-1 BR/93/021, fresh human PBMCs, seven days, RT activity): 8.61

SMILES: Fc1ccccc1-c1nc(Nc2cccc(C(F)(F)F)c2)c2ccccc2n1 [Compound 748]
- CC50 [4]: 33 µM
- pIC50 ([5]; analogs, Table 8): 4.98

SMILES: COc1ccc(Nc2nc(-c3ccccc3F)nc3ccccc23)cc1 [Compound 749]
- CC50 [4]: 19.5 µM
- pIC50 ([5]; analogs, Table 8): 5.69

SMILES: Oc1ccccc1-c1nc(Nc2ccc(F)c(F)c2)c2ccccc2n1 [Compound 750]
- CC50 [4]: > 75 µM
- pIC50 ([5]; analogs, Table 8): < 4.12

SMILES: COc1ccccc1Nc1nc(-c2ccccc2O)nc2ccccc12 [Compound 751]
- CC50 [4]: > 75 µM
- pIC50 ([5]; analogs, Table 8): 4.15

SMILES: COC(=O)c1cccc(Nc2nc(-c3ccccc3O)nc3ccccc23)c1 [Compound 752]
- CC50 [4]: > 75 µM
- pIC50 ([5]; analogs, Table 8): < 4.12

SMILES: Clc1ccc(-c2nc(Nc3ccc(Oc4ccccc4)cc3)c3ccccc3n2)cc1 [Compound 753]
- CC50 [4]: 48 µM
- pIC50 ([5]; analogs, Table 8): 4.33

SMILES: CC(=O)Nc1ccc(Nc2nc(-c3ccccc3)nc3ccccc23)cc1 [Compound 754]
- CC50 [4]: 15.1 µM
- pIC50 ([5]; analogs, Table 8): 5.43

SMILES: CC(=O)c1ccc(Nc2nc(-c3ccccc3)nc3ccccc23)cc1 [Compound 755]
- CC50 [4]: > 75 µM
- pIC50 ([5]; analogs, Table 8): 5.75

SMILES: Cc1nc(Oc2ccccc2)c2ccccc2n1 [Compound 756]
- CC50 [4]: 52 µM
- pIC50 ([5]; analogs, Table 8): 5.76

SMILES: CCC(=C/[C@H](C)C/C=C/C(C)=C/[C@@H](C)C(=O)[C@@H](C)[C@H](O)[C@@H](C)C/C(C)=C/C(=O)O)/C=C/[C@@H]1OC(=O)C=C[C@@H]1C [Leptomycin B, reference compound]
- pIC50 ([6]; 50% inhibition of Renilla Luciferase, 24 hours, HeLa reporter line, read-out: IC50): 8.09
- TI (TC50/IC50) ([6]; Rev assay): 2.43 and 2.35
- CC50 [7]: 0.02 µM and 0.0192 µM

SMILES: O=c1c2ccccc2n2nnc3ccc(NCCCN4CCN(CCCNc5ccc6nnn7c8ccccc8c(=O)c5c67)CC4)c1c32 [Temacrazine, reference compound]
- CC50 at 3 days ([8]; Table 6, MTS): > 0.5 µM
- CC50 at 3 days ([8]; Table 8, control, MTS): > 0.5 µM
- pIC50 ([5]; Human immunodeficiency virus 1, 72 h, Table 6, 5 ng/mL TNF-α, 3 days, RT activity): 8.70
- TI (TC50/IC50) ([5]; Table 6): >250
